Assay results taken from US7015345B2, “Propionic acid derivatives” (Asahi Kasei Pharma Corporation, priority 2002, dated 2006).
Read-outs that look alike come from different tables or passages of the source.

Experiments:
[1] = tested on: Zucker rats; assay: Liver triglyceride contents in Zucker rats; format: in vivo; conditions: Rattus norvegicus, 336 h, read-out: Triglyceride reducing rate (%); for inhibition in vivo at 1 mg/kg: 1 mg/kg once a day for 2 weeks
Procedure: Measurement of Liver Triglyceride Contents in Zucker Rats
To Zucker rats, a vehicle (0.5% MC), a compound of the present invention or fenofibrate (Sigma) was administered once a day for 2 weeks. The livers were isolated on the next day of the final administration, and amounts of triglyceride in the livers were determined. Triglyceride was extracted by adding 5 ml of a mixture of hexane and isopropanol (2:1, V/V) to 100 mg of liver, homogenizing the liver using Polytron homogenizer, then sufficiently stirring and centrifuging the homogenate at 2000 g for 10 minutes at room temperature. The amount of triglyceride in the solution layer was measured.

[2] = tested on: 3T3-L1 precursor adipocytes; assay: Triglyceride accumulation in adipocytes; format: cell-based; conditions: Mus musculus, 100 nM compound, 4 to 5 days culture, relative to 10 μM rosiglitazone taken as 100%, read-out: Amount of accumulated triglyceride (%)
Procedure: (§1) Test for Uptake of Glucose By Adipocytes and Test for Triglyceride Accumulation in Adipocytes
Further, 3T3-L1 precursor adipocytes were cultured for 4 to 5 days in the presence of a test compound, and then the amount of triglyceride in the cells was measured according to the method of Shibata T et al. (Eur. J. Pharmacol., 364 (2–3), 211–219, 1999). The amount of accumulated triglyceride provided after the treatment with 100 nM of each compound was measured, and represented as a relative value based on the amount of accumulated triglyceride provided after the treatment with 10 μM rosiglitazone, which was taken as 100%.

[3] = tested on: 3T3-L1 precursor adipocytes; assay: Uptake of glucose by adipocytes ([3H]-2-deoxy-glucose uptake); format: cell-based; conditions: Mus musculus, 100 nM compound, 4 to 5 days culture, 100 nM insulin stimulation, relative to 10 μM rosiglitazone taken as 100%, read-out: Amount of glucose uptake (%)
Procedure: as §1
According to the method of Mukherjee et al. (Mol. Endocrinol, 14, 1425–1433, 2000), a glucose uptake experiment was performed by using cultured cells. 3T3-L1 precursor adipocytes were cultured for 4 to 5 days in the presence of a test compound, and then stimulated with 100 nM insulin, and then the amount of [^3H]-2-deoxy-glucose (2DG) uptake by the cells was measured. The amount of glucose uptake provided after the treatment with 100 nM of each compound was measured, and represented as a relative value based on the amount of glucose uptake provided after the treatment with 10 μM rosiglitazone, which was taken as 100%.

[4] = tested on: db/db mice; assay: Hypoglycemic action and triglyceride-decreasing action in db/db mice; format: in vivo; conditions: Mus musculus, 360 h; for inhibition in vivo at 3 mg/kg: 3 mg/kg oral once a day for 2 weeks; for inhibition in vivo at 1 mg/kg: 1 mg/kg oral once a day for 2 weeks
Procedure: Test for Measuring Hypoglycemic Action and Triglyceride-Decreasing Action in db/db Mice
Each of test compounds was administered once a day for 2 weeks to db/db mice genetically presenting pathological conditions of obesity, hyperglycemia, and hyperlipidemia. Blood was collected from the mice immediately before the start of administration of a test sample or a vehicle on the first day. Plasma glucose levels and triglyceride levels were measured, and the mice were divided into groups so that average glucose levels and triglyceride levels gave no significant value among the groups. All the test samples were suspended in a 0.5% methylcellulose (MC) solution and orally administered. For a vehicle-administered control group, a 0.5% MC solution was orally administered. Blood samples were collected from the mice on the 15th day, and plasma glucose levels and triglyceride levels were measured. A hypoglycemic rate and triglyceride-reducing rate were calculated by using the following equations.

[5] = tested on: hamsters fed with high cholesterol diet; assay: Total plasma cholesterol and non-HDL cholesterol reducing action in hamster fed high cholesterol diet; format: in vivo; conditions: Mesocricetus auratus, 192 h, hamsters on high cholesterol diet, 10 mg/kg oral once a day for one week, plasma on 8th day
Procedure: Test for Measuring Total Plasma Cholesterol Reducing Action and Non-HDL Cholesterol (VLDL Cholesterol+LDL Cholesterol) Reducing Action in Hamster
A test compound (10 mg/kg) was administered once a day for one week to hamsters fed with high cholesterol diet (CE-2 (Clea Japan)+1% cholesterol+10% coconut oil) for five days. The plasma cholesterol level and the plasma HDL cholesterol level were measured immediately before the start of the administration of the test sample or vehicle on the 1st day, and the hamsters were divided into groups so that the groups gave no significant value of initial levels of the both measurements. Each of the test samples was dissolved in a 0.5% methylcellulose (MC) solution and orally administered. A 0.5% methylcellulose (MC) solution was orally administered to the hamsters as a vehicle control group. A blood sample was collected on the 8th day, and the plasma cholesterol level and the plasma HDL cholesterol level were measured. The total cholesterol reducing rate was obtained by using the following equation. [formula]
Further, non-HDL cholesterol level (LDL cholesterol level+VLDL cholesterol level) was calculated as (Total cholesterol level−HDL cholesterol level), and the reducing rate thereof was calculated by using the following equation. [formula]

[6] = plasma glucose on 15th day vs vehicle, read-out: Hypoglycemic rate (%)
[7] = plasma triglyceride on 15th day vs vehicle, read-out: Triglyceride reducing rate (%)
[8] = non-HDL = total cholesterol - HDL cholesterol, read-out: Non-HDL cholesterol reducing rate (%)
[9] = read-out: Total cholesterol reducing rate (%)

## CCCCCCCN(CCOc1ccc(CC(OCC)C(=O)O)cc1)C(=O)OCCC (stereo not drawn) [Example 59, 2-ethoxy-3-{4-[2-(N-heptyl-N-propoxycarbonylamino)ethoxy]phenyl}propionic acid]
[1]
  inhibition in vivo at 1 mg/kg: 40%
[2]
  Emax at 0.1 µM: 77%
[3]
  Emax at 0.1 µM: 88%
[4]; [6]
  inhibition in vivo at 3 mg/kg: 18%
[4]; [7]
  inhibition in vivo at 3 mg/kg: 21%
[5]; [8]
  inhibition in vivo at 10 mg/kg: 35%
[5]; [9]
  inhibition in vivo at 10 mg/kg: 37%

## CCCCCCCN(CCOc1ccc(CC(OCC)C(=O)O)cc1)C(=O)OC (stereo not drawn) [Example 56, 2-ethoxy-3-{4-[2-(N-heptyl-N-methoxycarbonylamino)ethoxy]phenyl}propionic acid]
[1]
  inhibition in vivo at 1 mg/kg: 42%
[2]
  Emax at 0.1 µM: 85%
[3]
  Emax at 0.1 µM: 90%
[4]; [6]
  inhibition in vivo at 1 mg/kg: 26%
[4]; [7]
  inhibition in vivo at 1 mg/kg: 49%
[5]; [8]
  inhibition in vivo at 10 mg/kg: 40%
[5]; [9]
  inhibition in vivo at 10 mg/kg: 39%

## CCCCCCCN(CCOc1ccc(CC(OC(C)C)C(=O)O)cc1)C(=O)OC(C)C (stereo not drawn) [Example 125, 3-{4-[2-(N-heptyl-N-isopropoxycarbonylamino)ethoxy]phenyl}-2-isopropoxypropionic acid]
[1]
  inhibition in vivo at 1 mg/kg: 36%
[2]
  Emax at 0.1 µM: 98%
[3]
  Emax at 0.1 µM: 97%
[4]; [6]
  inhibition in vivo at 1 mg/kg: 42%
[4]; [7]
  inhibition in vivo at 1 mg/kg: 64%
[5]; [8]
  inhibition in vivo at 10 mg/kg: 48%
[5]; [9]
  inhibition in vivo at 10 mg/kg: 45%

## CCCCOCCN(CCOc1ccc(CC(OC(C)C)C(=O)O)cc1)C(=O)OCC(C)C (stereo not drawn) [Example 132, 3-(4-{2-[N-(2-butoxyethyl)-N-isobutoxycarbonylamino]ethoxy}phenyl)-2-isopropoxypropionic acid]
[1]
  inhibition in vivo at 1 mg/kg: 39%
[2]
  Emax at 0.1 µM: 97%
[3]
  Emax at 0.1 µM: 96%
[4]; [6]
  inhibition in vivo at 1 mg/kg: 7%
[4]; [7]
  inhibition in vivo at 1 mg/kg: 14%
[5]; [8]
  inhibition in vivo at 10 mg/kg: 20%
[5]; [9]
  inhibition in vivo at 10 mg/kg: 18%

## CCCCOCCN(CCOc1ccc(CC(OCC)C(=O)O)cc1)C(=O)OCCC (stereo not drawn) [Example 115, 3-(4-{2-[N-(2-butoxyethyl)-N-propoxycarbonylamino]ethoxy}phenyl)-2-ethoxypropionic acid]
[1]
  inhibition in vivo at 1 mg/kg: 42%
[2]
  Emax at 0.1 µM: 95%
[3]
  Emax at 0.1 µM: 98%
[4]; [6]
  inhibition in vivo at 3 mg/kg: 11%
[4]; [7]
  inhibition in vivo at 3 mg/kg: 18%
[5]; [8]
  inhibition in vivo at 10 mg/kg: 17%
[5]; [9]
  inhibition in vivo at 10 mg/kg: 17%

## C#CCOC(=O)N(CCCCCCC)CCOc1ccc(CC(OCC)C(=O)O)cc1 (stereo not drawn) [Example 67, 2-ethoxy-3-(4-{2-[N-heptyl-N-(2-propynyloxycarbonyl)amino]ethoxy}phenyl)propionic acid]
[1]
  inhibition in vivo at 1 mg/kg: 47%
[2]
  Emax at 0.1 µM: 92%
[3]
  Emax at 0.1 µM: 91%
[4]; [6]
  inhibition in vivo at 1 mg/kg: 17%
[4]; [7]
  inhibition in vivo at 1 mg/kg: 26%
[5]; [8]
  inhibition in vivo at 10 mg/kg: 32%
[5]; [9]
  inhibition in vivo at 10 mg/kg: 34%

## CCCCCCCN(CCOc1ccc(CC(OCC)C(=O)O)cc1)C(=O)OCC (stereo not drawn) [Example 75, 2-ethoxy-3-{4-[2-(N-ethoxycarbonyl-N-heptylamino)ethoxy]phenyl}propionic acid]
[1]
  inhibition in vivo at 1 mg/kg: 32%
[2]
  Emax at 0.1 µM: 98%
[3]
  Emax at 0.1 µM: 98%
[4]; [6]
  inhibition in vivo at 3 mg/kg: 38%
[4]; [7]
  inhibition in vivo at 3 mg/kg: 32%
[5]; [8]
  inhibition in vivo at 10 mg/kg: 46%
[5]; [9]
  inhibition in vivo at 10 mg/kg: 48%

## CCCCOCCN(CCOc1ccc(CC(OC(C)C)C(=O)O)cc1)C(=O)OC(C)C (stereo not drawn) [Example 130, 3-(4-{2-[N-(2-butoxyethyl)-N-isopropoxycarbonylamino]ethoxy}phenyl)-2-isopropoxypropionic acid]
[1]
  inhibition in vivo at 1 mg/kg: 32%
[2]
  Emax at 0.1 µM: 90%
[3]
  Emax at 0.1 µM: 92%
[4]; [6]
  inhibition in vivo at 1 mg/kg: 41%
[4]; [7]
  inhibition in vivo at 1 mg/kg: 40%
[5]; [8]
  inhibition in vivo at 10 mg/kg: 22%
[5]; [9]
  inhibition in vivo at 10 mg/kg: 22%

## CCCCOCCN(CCOc1ccc(CC(OCC)C(=O)O)cc1)C(=O)OC(C)C (stereo not drawn) [Example 122, 3-(4-{2-[N-(2-butoxyethyl)-N-isopropoxycarbonylamino]ethoxy}phenyl)-2-ethoxypropionic acid]
[1]
  inhibition in vivo at 1 mg/kg: 2%
[2]
  Emax at 0.1 µM: 90%
[3]
  Emax at 0.1 µM: 92%
[4]; [6]
  inhibition in vivo at 3 mg/kg: 14%
[4]; [7]
  inhibition in vivo at 3 mg/kg: 21%
[5]; [8]
  inhibition in vivo at 10 mg/kg: 9%
[5]; [9]
  inhibition in vivo at 10 mg/kg: 10%

## CCOC(Cc1ccc(OCCN(CCOc2ccccc2)C(=O)OC(C)C)cc1)C(=O)O (stereo not drawn) [Example 92, 2-ethoxy-3-(4-{2-[N-isopropoxycarbonyl-N-(2-phenoxyethyl)amino]ethoxy}phenyl)propionic acid]
[1]
  inhibition in vivo at 1 mg/kg: 2%
[2]
  Emax at 0.1 µM: 92%
[3]
  Emax at 0.1 µM: 90%
[4]; [6]
  inhibition in vivo at 3 mg/kg: 4%
[4]; [7]
  inhibition in vivo at 3 mg/kg: 12%
[5]; [8]
  inhibition in vivo at 10 mg/kg: 10%
[5]; [9]
  inhibition in vivo at 10 mg/kg: 8%

## CCCCCCCN(CCOc1ccc(CC(OCC)C(=O)O)cc1)C(=O)OC(C)C (stereo not drawn) [Example 66, 2-ethoxy-3-{4-[2-(N-heptyl-N-isopropyloxycarbonylamino)ethoxy]phenyl}propionic acid]
[1]
  inhibition in vivo at 1 mg/kg: 44%
[2]
  Emax at 0.1 µM: 80%
[3]
  Emax at 0.1 µM: 95%
[4]; [6]
  inhibition in vivo at 1 mg/kg: 32%
[4]; [7]
  inhibition in vivo at 1 mg/kg: 57%
[5]; [8]
  inhibition in vivo at 10 mg/kg: 42%
[5]; [9]
  inhibition in vivo at 10 mg/kg: 40%

## CCCCCCCN(CCOc1ccc(CC(OCC)C(=O)O)cc1)C(=O)OCc1ccccc1 (stereo not drawn) [Example 57, 3-{4-[2-(N-benzyloxycarbonyl-N-heptylamino)ethoxy]phenyl}-2-ethoxypropionic acid]
[1]
  inhibition in vivo at 1 mg/kg: 41%
[2]
  Emax at 0.1 µM: 75%
[3]
  Emax at 0.1 µM: 80%
[4]; [6]
  inhibition in vivo at 3 mg/kg: 35%
[4]; [7]
  inhibition in vivo at 3 mg/kg: 46%
[5]; [8]
  inhibition in vivo at 10 mg/kg: 43%
[5]; [9]
  inhibition in vivo at 10 mg/kg: 41%

## CCCCCCCN(CCOc1ccc(CC(OC(C)C)C(=O)O)cc1)C(=O)OC (stereo not drawn) [Example 118, 3-{4-[2-(N-heptyl-N-methoxycarbonylamino)ethoxy]phenyl}-2-isopropoxypropionic acid]
[1]
  inhibition in vivo at 1 mg/kg: 47%
[2]
  Emax at 0.1 µM: 55%
[3]
  Emax at 0.1 µM: 60%
[4]; [6]
  inhibition in vivo at 1 mg/kg: 42%
[4]; [7]
  inhibition in vivo at 1 mg/kg: 51%
[5]; [8]
  inhibition in vivo at 10 mg/kg: 50%
[5]; [9]
  inhibition in vivo at 10 mg/kg: 45%

## CC(C)OC(=O)C(C)(C)Oc1ccc(C(=O)c2ccc(Cl)cc2)cc1 [Fenofibrate, fenofibrate, reference compound]
[1]; 100 mg/kg once a day for 2 weeks
  inhibition in vivo at 100 mg/kg: 22%

## C=CCCOC(=O)N(CCCCCCC)CCOc1ccc(CC(OCC)C(=O)O)cc1 (stereo not drawn) [Example 73, 3-(4-{2-[N-(3-butenyloxycarbonyl)-N-heptylamino]ethoxy}phenyl)-2-ethoxypropionic acid]
[1]
  inhibition in vivo at 1 mg/kg: 34%
[2]
  Emax at 0.1 µM: 96%
[3]
  Emax at 0.1 µM: 99%
[4]; [6]
  inhibition in vivo at 3 mg/kg: 30%
[4]; [7]
  inhibition in vivo at 3 mg/kg: 43%
[5]; [8]
  inhibition in vivo at 10 mg/kg: 45%
[5]; [9]
  inhibition in vivo at 10 mg/kg: 45%
